# Assays:
# [1] = molecular target: AXAH activity of barley endosperm (arabinoxylan arabinofuranohydrolase, endogenous) (barley (endogenous in endosperm of cv NFC Tipple)); experiment: SEC; endosperm extracts of seedlings at 4-10 dpi on a Sephacryl size exclusion column in 50 mM Tris/HCl pH 7.5, 150 mM NaCl; fractions assayed for enzyme activity; size estimated against protein standards
# Agl97 (maltase) [2] = molecular target: T1, Agl97 (maltase) (Hordeum vulgare, UniProt Q9LLY2); experiment: inhibition of pNPG hydrolysis, absorbance […] nm; type: biochemical; conditions: 0.01-100 µM LAB; 0.6 mM pNPG, 50 mM sodium acetate pH 4.5, 5 mM CaCl2, 37 °C
# T1 construct: purified recombinant
# T1 sequence (Q9LLY2 24-879): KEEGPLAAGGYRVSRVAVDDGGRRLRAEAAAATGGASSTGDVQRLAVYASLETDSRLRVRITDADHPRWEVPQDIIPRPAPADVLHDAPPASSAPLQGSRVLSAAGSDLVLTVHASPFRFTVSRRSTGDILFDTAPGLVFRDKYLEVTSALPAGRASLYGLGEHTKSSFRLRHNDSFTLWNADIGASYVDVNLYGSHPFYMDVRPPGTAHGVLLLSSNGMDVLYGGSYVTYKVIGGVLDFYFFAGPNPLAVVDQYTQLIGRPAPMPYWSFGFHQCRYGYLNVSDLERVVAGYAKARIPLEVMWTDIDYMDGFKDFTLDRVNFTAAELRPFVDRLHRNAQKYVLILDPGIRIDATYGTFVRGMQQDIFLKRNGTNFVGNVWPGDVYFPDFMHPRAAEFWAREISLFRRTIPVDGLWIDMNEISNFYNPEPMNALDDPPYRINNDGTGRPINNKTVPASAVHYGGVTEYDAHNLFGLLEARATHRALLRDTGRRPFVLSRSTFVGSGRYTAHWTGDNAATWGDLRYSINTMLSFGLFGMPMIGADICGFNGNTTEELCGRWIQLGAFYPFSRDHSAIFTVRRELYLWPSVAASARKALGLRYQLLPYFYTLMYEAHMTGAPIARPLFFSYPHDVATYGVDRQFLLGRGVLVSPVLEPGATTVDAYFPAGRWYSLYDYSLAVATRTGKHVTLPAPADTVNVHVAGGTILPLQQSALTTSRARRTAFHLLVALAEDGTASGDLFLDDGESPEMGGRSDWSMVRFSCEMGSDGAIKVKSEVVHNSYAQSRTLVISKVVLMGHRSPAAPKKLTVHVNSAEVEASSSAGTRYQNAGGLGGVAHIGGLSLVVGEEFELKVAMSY
# Agl97 (maltase) [3] = molecular target: T1, Agl97 (maltase); experiment: 4-nitrophenol release, absorbance […] nm; type: biochemical; conditions: 0.6 mM, 50 mM sodium acetate pH 4.5, 5 mM CaCl2, 37 °C
compound,measurement,setting,value
"AXAH activity of barley endosperm (arabinoxylan arabinofuranohydrolase, endogenous) (enzyme)",stoichiometry N,[1],2
"OC[C@@H]1NC[C@H](O)[C@H]1O [LAB, 1,4-dideoxy-1,4-imino-L-arabinitol]",% inhibition,Agl97 (maltase) [2],LAB inhibited the activity of purified recombinant maltase (Agl97)
O=[N+]([O-])c1ccc(O[C@H]2O[C@H](CO)[C@@H](O)[C@H](O)[C@H]2O)cc1 [4-nitrophenyl α-D-glucopyranoside],"4-nitrophenol release, absorbance 405 nm",Agl97 (maltase) [3],Purified recombinant Agl97 was assayed with pNPG
